From article PMC11939889, “Efficient Incorporation of DOPA into Proteins Free from Competition with Endogenous Translation Termination Machinery” (Biomolecules, 2025)
pKd: −log10 of the molar value.

Biological target: T1, DOPARS (Methanocaldococcus jannaschii, UniProt Q57834, D158A/D286A/E220K/F261S/H283P/H70A/I159A/L282P/L65E/M285R/N268D/P284L/Y119F)
T1 construct: gene tyrS
Experiment: isothermal titration calorimetry
Format: binding

T1 sequence (Q57834 whole entry L65E/H70A/Y119F/D158A/I159A/E220K/F261S/N268D/L282P/H283P/P284L/M285R/D286A): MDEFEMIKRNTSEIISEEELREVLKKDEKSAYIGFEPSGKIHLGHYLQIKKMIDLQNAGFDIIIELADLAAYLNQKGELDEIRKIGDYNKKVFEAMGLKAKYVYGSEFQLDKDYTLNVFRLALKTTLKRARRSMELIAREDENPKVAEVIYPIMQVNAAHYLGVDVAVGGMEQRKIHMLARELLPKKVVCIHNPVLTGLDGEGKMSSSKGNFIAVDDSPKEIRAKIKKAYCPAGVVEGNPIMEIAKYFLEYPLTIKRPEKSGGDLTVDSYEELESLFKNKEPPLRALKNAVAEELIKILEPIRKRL

pKd: 4.93
Structure (SMILES): N[C@@H](Cc1ccc(O)c(O)c1)C(=O)O [DOPA, 3,4-Dihydroxy-L-phenylalanine]
